The values that follow are results of earlier work, collected in publication PMC9199201, “Biomimetic and temporal-controlled nanocarriers with ileum transporter targeting for achieving oral administration of chemotherapeutic drugs” (Journal of Nanobiotechnology, 2022).

Each structure is given as a SMILES string.

On the set-up of the data set: method as in PMID 23220325.

Take `CC(=O)O[C@H]1C(=O)[C@@]2(C)[C@H]([C@H](OC(=O)c3ccccc3)[C@]3(O)C[C@H](OC(=O)[C@H](O)[C@@H](NC(=O)c4ccccc4)c4ccccc4)C(C)=C1C3(C)C)[C@]1(OC(C)=O)CO[C@@H]1C[C@@H]2O` [PTX, paclitaxel]: the Oral bioavailability entry is given as “less than 1%”.
